# Source: patent US20200206233A1 (INTEGRAL BIOSCIENCES PRIVATE LIMITED, priority 2018, published 2020)
# Target: T1, IDH1 mutant (R132H) (Homo sapiens, UniProt O75874, R132H)
# T1 construct: purchased BPS Bioscience 71099-2
# Test: Mutant IDH1-R132H Fluorescence Assay (Resazurin based)
# Assay type: biochemical
# Conditions: 10 nM IDH1 R132H, 4 mM α-ketoglutarate, NADPH, 1.5 h at room temperature
# Description: IC50 values of compounds against IDH1 mutant (R132H) was determined by Resazurin based Fluorescence assay. Assays were performed in Buffer (25 mM Tris HCl, 150 mM NaCl, 10 mM MgCl2, 0.03% BSA, 2 mM 1-mercaptoethanol) where total reaction volume was 12.5 μL in low-volume 384-well plates (Cat #4511, Corning). Serially diluted compounds (3-fold) were incubated with cocktail of α-ketoglutarate (4 mM; Cat #75892-25G, Sigma), NADPH ([…]; Cat # N1630-100MG, Sigma) and buffer for 5 min, following IDH1 R132H mutant (10 nM; Cat #71099-2, BPS Bioscience) was added and incubated in dark at room temperature for 1.5 h. After 1.5 h, 6.25 μL detection solution containing Resazurin ([…]; (Cat #62758-13-8, Sigma) and Diaphorase (40 ug/ml; Cat # D2197-300UN, Sigma) in buffer was added and incubated for 15 min. Readings were taken in a Synergy Neo Plate reader (BioTek, Winooski) at single excitation of 540 nm and emission at 590 nm respectively.
# The % (percent) activity of test samples was calculated as (Sample−Min)×100/(Max−Min). [Max: DMSO control, complete reaction with enzyme with DMSO and Min: No enzyme with DMSO]. Percent inhibition (100−% activity) was fitted to the “four-parameter logistic model” in XLfit for determination of IC50 values.
# T1 sequence (O75874 whole entry R132H): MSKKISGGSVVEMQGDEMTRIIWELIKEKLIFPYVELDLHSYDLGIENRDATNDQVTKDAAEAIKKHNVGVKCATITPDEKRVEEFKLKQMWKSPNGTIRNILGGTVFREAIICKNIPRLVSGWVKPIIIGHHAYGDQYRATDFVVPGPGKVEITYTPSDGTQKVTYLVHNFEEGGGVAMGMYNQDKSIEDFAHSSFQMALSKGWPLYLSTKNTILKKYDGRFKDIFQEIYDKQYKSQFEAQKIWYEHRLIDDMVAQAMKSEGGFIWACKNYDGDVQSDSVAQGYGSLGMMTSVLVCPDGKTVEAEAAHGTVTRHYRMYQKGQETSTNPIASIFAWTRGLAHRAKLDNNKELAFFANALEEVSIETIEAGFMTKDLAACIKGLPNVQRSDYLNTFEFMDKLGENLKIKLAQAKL
row,SMILES,IC50 [µM]
1,"CC[C@H]1COC(=O)N1c1nc(C)nc(NC(C)c2cn(-c3ccc(Cl)cc3)cn2)n1 (single isomer, unassigned) [Compound 1.51]",> 22.9
2,"CC(C)[C@H]1COC(=O)N1c1ncnc(N[C@H](C)c2ccc(Oc3ccccc3)cc2)n1 [Compound 1.8, (S)-4-isopropyl-3-(4-((R)-1-(4-phenoxyphenyl)ethylamino)-1,3,5-triazin-2-yl)oxazolidin-2-one]",> 30
3,"CC(C)[C@H]1COC(=O)N1c1ncnc(N[C@H](C)c2cn(-c3ccc(Cl)cc3)cn2)n1 [Compound 1.14, (S)-3-(4-((R)-1-(1-(4-chlorophenyl)-1H-imidazol-4-yl)ethylamino)-1,3,5-triazin-2-yl)-4-isopropyloxazolidin-2-one]",24.5
4,"C[C@@H](Nc1ncnc(N2C(=O)OC[C@@H]2C)n1)c1ccc(Oc2ccccc2)cc1 [Compound 1.17, (S)-4-methyl-3-(4-((R)-1-(4-phenoxyphenyl)ethylamino)-1,3,5-triazin-2-yl)oxazolidin-2-one]",> 30
5,"CC(C)[C@H]1COC(=O)N1c1ncnc(N[C@H](C)c2ccc(Oc3ccccc3)cn2)n1 [Compound 1.18, (S)-4-isopropyl-3-(4-((R)-1-(5-phenoxypyridin-2-yl)ethylamino)-1,3,5-triazin-2-yl)oxazolidin-2-one]",> 30
6,C[C@@H](Nc1ncnc(N2CCOC2=O)n1)c1ccc(Oc2ccccc2)cc1 [Compound 1.20],> 30
7,"CC(C)[C@H]1COC(=O)N1c1ncnc(N[C@H](C)c2cc3cc(Cl)ccc3[nH]c2=O)n1 [Compound 1.22, (S)-3-(4-((R)-1-(6-chloro-2-oxo-1,2-dihydroquinolin-3-yl)ethylamino)-1,3,5-triazin-2-yl)-4-isopropyloxazolidin-2-one]",> 30
8,"CC(C)[C@H]1COC(=O)N1c1ncnc(N[C@@H](C)c2ccc(N3CCN(C)CC3)cn2)n1 [Compound 1.24, (S)-4-isopropyl-3-(4-((S)-1-(5-(4-methylpiperazin-1-yl)pyridin-2-yl)ethylamino)-1,3,5-triazin-2-yl)oxazolidin-2-one]",> 30
9,"CC(C)[C@H]1COC(=O)N1c1ncnc(N[C@H](C)c2ccc(N3CCN(C)CC3)cn2)n1 [Compound 1.25, (S)-4-isopropyl-3-(4-((R)-1-(5-(4-methylpiperazin-1-yl)pyridin-2-yl)ethylamino)-1,3,5-triazin-2-yl)oxazolidin-2-one]",> 30
10,"CC(C)[C@H]1COC(=O)N1c1ncnc(N[C@@H](C)c2ccccn2)n1 [Compound 1.30, (S)-4-isopropyl-3-(4-((S)-1-(pyridin-2-yl)ethylamino)-1,3,5-triazin-2-yl)oxazolidin-2-one]",> 30
11,"CC[C@H]1COC(=O)N1c1nc(C)nc(N[C@H](C)c2cc3cc(Cl)ccc3[nH]c2=O)n1 [Compound 1.39, (S)-3-(4-((R)-1-(6-chloro-2-oxo-1,2-dihydroquinolin-3-yl)ethylamino)-6-methyl-1,3,5-triazin-2-yl)-4-ethyloxazolidin-2-one]",> 30
12,"CC[C@H]1COC(=O)N1c1nc(C)nc(N[C@H](C)c2cc3cc(Cl)c(OC)cc3[nH]c2=O)n1 [Compound 1.43, (S)-3-(4-((R)-1-(6-chloro-7-methoxy-2-oxo-1,2-dihydroquinolin-3-yl)ethylamino)-6-methyl-1,3,5-triazin-2-yl)-4-ethyloxazolidin-2-one]",6.83
13,"CC[C@H]1COC(=O)N1c1nc(C)nc(N[C@@H](C)c2cc3ccccc3[nH]c2=O)n1 [Compound 1.45, (S)-4-ethyl-3-(4-methyl-6-((S)-1-(2-oxo-1,2-dihydroquinolin-3-yl)ethylamino)-1,3,5-triazin-2-yl)oxazolidin-2-one]",1.79
14,"CC[C@H]1COC(=O)N1c1nc(C)nc(N[C@H](C)c2cc3ccccc3[nH]c2=O)n1 [Compound 1.46, (S)-4-ethyl-3-(4-methyl-6-((R)-1-(2-oxo-1,2-dihydroquinolin-3-yl)ethylamino)-1,3,5-triazin-2-yl) oxazolidin-2-one]",> 30
15,"CC[C@H]1COC(=O)N1c1nc(C)nc(N[C@@H](C)c2cn3cc(Br)ccc3n2)n1 [Compound 1.47, (S)-3-(4-((S)-1-(6-bromoimidazo[1,2-a]pyridin-2-yl)ethylamino)-6-methyl-1,3,5-triazin-2-yl)-4-ethyloxazolidin-2-one]",3.18
16,"CC[C@H]1COC(=O)N1c1nc(C)nc(N[C@H](C)c2cn3cc(Br)ccc3n2)n1 [Compound 1.48, (S)-3-(4-((R)-1-(6-bromoimidazo[1,2-a]pyridin-2-yl)ethylamino)-6-methyl-1,3,5-triazin-2-yl)-4-ethyloxazolidin-2-one]",> 30
17,"CC[C@H]1COC(=O)N1c1nc(C)nc(N[C@@H](C)c2cc3cc(Cl)cnc3[nH]c2=O)n1 [Compound 1.49, (S)-3-(4-((S)-1-(6-chloro-2-oxo-1,2-dihydro-1,8-naphthyridin-3-yl)ethylamino)-6-methyl-1,3,5-triazin-2-yl)-4-ethyloxazolidin-2-one]",> 30
18,"CC[C@H]1COC(=O)N1c1nc(C)nc(N[C@@H](C)c2cc(C)c(-c3ccnc(C(F)(F)F)c3)cn2)n1 [Compound 1.54, (S)-4-ethyl-3-(4-methyl-6-((S)-1-(4-methyl-2′-(trifluoromethyl)-3,4′-bipyridin-6-yl)ethylamino)-1,3,5-triazin-2-yl)oxazolidin-2-one]",1.21
19,"CC[C@H]1COC(=O)N1c1nc(C)nc(N[C@@H](C)c2cc3cc(OC)ccc3[nH]c2=O)n1 [Compound 1.55, (S)-4-ethyl-3-(4-((S)-1-(6-methoxy-2-oxo-1,2-dihydroquinolin-3-yl)ethylamino)-6-methyl-1,3,5-triazin-2-yl)oxazolidin-2-one]",1.25
20,"CC[C@H]1COC(=O)N1c1nc(C)nc(N[C@H](C)c2cc3cc(OC)ccc3[nH]c2=O)n1 [Compound 1.56, (S)-4-ethyl-3-(4-((R)-1-(6-methoxy-2-oxo-1,2-dihydroquinolin-3-yl)ethylamino)-6-methyl-1,3,5-triazin-2-yl)oxazolidin-2-one]",> 30
21,"CC[C@H]1COC(=O)N1c1nc(C)nc(NCc2cc3cc(Cl)ccc3[nH]c2=O)n1 [Compound 1.57, (S)-3-(4-((6-chloro-2-oxo-1,2-dihydroquinolin-3-yl)methylamino)-6-methyl-1,3,5-triazin-2-yl)-4-ethyloxazolidin-2-one]",2.07
22,"Cc1nc(N[C@H](C)c2cc3cc(Cl)ccc3[nH]c2=O)nc(N2C(=O)OC[C@@H]2[C@H](C)F)n1 [Compound 1.60, (R)-3-(4-((R)-1-(6-chloro-2-oxo-1,2-dihydroquinolin-3-yl)ethylamino)-6-methyl-1,3,5-triazin-2-yl)-4-((S)-1-fluoroethyl)oxazolidin-2-one]",> 30
23,"CC[C@H]1COC(=O)N1c1nc(C)nc(N[C@H](C)c2ccc(OCc3ccccn3)cc2)n1 [Compound 1.61, (S)-4-ethyl-3-(4-methyl-6-((R)-1-(4-(pyridin-2-ylmethoxy)phenyl)ethylamino)-1,3,5-triazin-2-yl)oxazolidin-2-one]",17
24,"CC[C@H]1COC(=O)N1c1nc(C)nc(N[C@@H](C)c2ccc(OCc3ccccn3)cc2)n1 [Compound 1.62, (S)-4-ethyl-3-(4-methyl-6-((S)-1-(4-(pyridin-2-ylmethoxy)phenyl)ethylamino)-1,3,5-triazin-2-yl)oxazolidin-2-one]",3.29
